By viability is commonly meant a read-out of living cells in per cent, often relative to untreated cells.

The first data set is described as follows: in vitro. As to conditions: human, hela cells, % viability.
`CO/C(=N\S(=O)(=O)c1ccccc1)c1ccccc1` [CBK023221]: the viability at 28.5 h, 10 µM came out at 89.4%.

`CCCN(CCC)C(=O)c1nc(C)c(C(=O)N(CCC)CCC)nc1C` [CBK023232]: the viability at 28.5 h, 10 µM is 89.2%. With `CCN(CC)CCN(C(=O)N1CCCC1)c1c(C)cccc1C` [CBK023237C], the viability at 28.5 h, 10 µM was 98.7%. On to `O=C(CCCN[C@H]1CC[C@](O)(c2ccc(F)cc2)CC1)c1ccc(F)cc1` [CBK023258C], for which the viability at 28.5 h, 10 µM turned out to be 90.7%. As for `O=C(N/N=C\c1c(F)cccc1Cl)c1ccncc1` [CBK023263], the viability at 28.5 h, 10 µM is 84.7%.

As to `CCC1(c2ccccc2)OCC(C2CCCCN2)O1` (centres unmarked) [CBK023284C], the viability at 28.5 h, 10 µM was 85.7%. Still for that read-out and setting: to `Cc1ccc(S(=O)(=O)N2CC(=O)NC2=S)cc1` [CBK023293] belongs 94.5%; to `Cc1cc(=O)c(C#N)c(C)[nH]1` [CBK023326], 92.4%. On the same count and under the same terms, in the case of `CC(=O)CCc1cc(CCC(N)=O)on1` [CBK023350] it was 90.3%. For `CN(C)CCN1C(=O)CCc2ccccc21` [CBK023390C], the viability at 28.5 h, 10 µM is 102%. Same read-out and setting: in the case of `CN(C)C(=O)C1(c2ccccc2)CCNC1` (centres unmarked) [CBK023394C] it was 114%. The same measure, in the same setting: to `CC1(C)Cc2ccccc2C(NCCC(=O)O)=N1` [CBK023412] belongs 97.9%. Still for that read-out and setting: to `Cc1ccc(S(=O)(=O)NCCC(=O)NO)cc1` [CBK023472] belongs 110%. Consider `CCCC1SCC(=O)N1c1nncs1` (centres unmarked) [CBK023497], for which the viability at 28.5 h, 10 µM came out at 95.4%.

Regarding `S=C(Cc1csc2ccccc12)NC1CCCCC1` [CBK023515], the viability at 28.5 h, 10 µM is 88.7%.

`Cc1csc2ncnc(N3CCN(C(=O)C4CC4)CC3)c12` [CBK023593]: the viability at 28.5 h, 10 µM was determined as 112%. On the same count and under the same terms, in the case of `N#Cc1nccnc1S(=O)(=O)CCO` [CBK023595] it was 90.1%; in that of `CC(=O)N1N=C(c2cccnc2)OC1(C)C` [CBK023619], 90.4%. With `NC(=O)c1sc2nc(-c3cccnc3)ccc2c1N` [CBK023645], the viability at 28.5 h, 10 µM was 66%. Same read-out and setting: to `CCOC(=O)c1cnn2c(N)c(C(N)=O)nnc12` [CBK023694] belongs 98.2%. Still for that read-out and setting: to `CC(C)/C=N/N=C1\NC(=O)CS1` [CBK023706] belongs 90.7%; to `COC(=O)c1ccccc1OCCc1csc(NS(=O)(=O)c2cccc(Cl)c2C)n1` [CBK023735], 116%; to `O=C1CCCN1CC#CCN1CCN(Cc2ccccc2)CC1` [CBK023770C], 96.2%. Still for that read-out and setting: in the case of `CCN(CC)CCn1cc(C2CCCN(C)CC2)c2ccccc21` (centres unmarked) [CBK023788B] it was 91.1%; in that of `O=C(O)c1cnc(NCC2CCCCCC2)[nH]c1=O` [CBK023792], 88.8%; in that of `CN/C(=N\C1CCCCC1)N1CCOCC1` [CBK023800G], 92.2%. Regarding `CCCCNC(=S)NC1CC[C@@]2(Cc3ccc(OC)c(OC)c3)CCN(C)[C@H]2C1` (some centres unmarked) [CBK023805], the viability at 28.5 h, 10 µM came to 81.5%. With `CCNC(=S)N[C@@H]1CC[C@@]2(Cc3ccc(OC)c(OC)c3)CCN(C)[C@H]2C1` [CBK023811], the viability at 28.5 h, 10 µM stood at 94.5%.

`CN(C)CCN(C)[C@H]1CCCC[C@@H]1N(C)C(=O)Cc1ccc(Br)cc1` [CBK023819C]: the viability at 28.5 h, 10 µM amounted to 93.4%. `COc1cc(CCN2CCCCC2)c(C(C)n2cncn2)cc1OC` (centres unmarked) [CBK023837G]: the viability at 28.5 h, 10 µM worked out at 90.3%. As to `CNC(=O)Nc1cccc(S(N)(=O)=O)c1` [CBK023839], the viability at 28.5 h, 10 µM stood at 89.1%.

As to `Cc1nc(NCc2ccc(C(F)(F)F)cc2)nc(N2CCOCC2)n1` [CBK023863], the viability at 28.5 h, 10 µM came to 91.9%. On the same count and under the same terms, in the case of `CCN(CC)CCCNc1nc2ccc(O)cc2s1` [CBK023880C] it was 105%; in that of `CC(C)(C)NCC(O)CO/N=C(/c1ccncc1)c1ccc(Br)cc1` (centres unmarked) [CBK023914G], 95.7%; in that of `CN1CCCC1C(CCNC1CCCCC1)c1ccccc1` (centres unmarked) [CBK023921C], 99%. Still for that read-out and setting: in the case of `COc1ccccc1NC(=O)CN1CCN(CCC(=O)c2ccc(C(C)C)cc2)CC1` [CBK023925C] it was 95%. Still for that read-out and setting: to `CC1(C)OC(N2CCN(Cc3ccccc3)CC2)=Nc2ccccc21` [CBK023933C] belongs 90.9%.

As to `c1ccc2[nH]c(CCSCCc3nc4ccccc4[nH]3)nc2c1` [CBK023949], the viability at 28.5 h, 10 µM worked out at 86%. The same measure, in the same setting: to `O=c1[nH]c(=S)c2c(n1CCc1ccccn1)CCCC2` [CBK023951G] belongs 101%; to `c1ccc2c(c1)CCC(CNCCN1CCOCC1)O2` (centres unmarked) [CBK023956G], 94%; to `CCN(CC)CC1CCCCC1=O` (centres unmarked) [CBK023965G], 93.9%.

As for `NCCNCCNCCN` [CBK023985C], the viability at 28.5 h, 10 µM amounted to 93.2%. The same measure, in the same setting: in the case of `Cc1cc(C(=O)NCCc2ccc(S(=O)(=O)NC(=O)NC3CCCCC3)cc2)n[nH]1` [CBK023997] it was 99.1%; in that of `Nc1ccc2cc3ccc(N)cc3nc2c1` [CBK024003G], 71%; in that of `COc1ccc2c3c1CCC(C)(C)C3COC2CCN1CCN(c2ccc(F)cc2)CC1` (centres unmarked) [CBK024047C], 86.7%. With `N=C(N)NCCc1ccc(Cl)cc1` [CBK024074G], the viability at 28.5 h, 10 µM was found to be 105%. Still for that read-out and setting: to `CC1(C)COC(CCN2CCN(c3ccc(F)cc3)CC2)c2ccccc21` (centres unmarked) [CBK024080C] belongs 105%. Still for that read-out and setting: in the case of `COc1ccccc1CN(C)C(C)=O` [CBK024120] it was 118%; in that of `CCC(=O)N[C@H]1CC[C@@]2(Cc3ccc(OC)cc3)CCN(C)[C@H]2C1` [CBK024126], 98.9%.

For the compound `COc1ccc(C[C@@]23CC[C@H](NC(=O)NCCc4ccccc4)C[C@@H]2N(C)CC3)cc1` [CBK024127], the viability at 28.5 h, 10 µM came to 95.2%.

As for `Cc1cc(C(F)(F)F)nc2c(OCCOc3nccnc3N3CCNCC3)cnn12` [CBK024195C], the viability at 28.5 h, 10 µM was 96.1%. With `COc1ccc(N)cc1OCCn1ccnc(N2CCNCC2)c1=O` [CBK024211C], the viability at 28.5 h, 10 µM amounted to 98.3%.

For `OC(c1ccncc1)C(O)c1ccncc1` (centres unmarked) [CBK024254], the viability at 28.5 h, 10 µM came to 87.1%. With `COc1ccc(CCC(=O)Nc2ccccc2N2CCCNCC2)cc1` [CBK024286T], the viability at 28.5 h, 10 µM stood at 101%. Take `CCNc1cccnc1N1CCN(CCc2cc(C)c(O)c(C)c2)CC1` [CBK024361C]: the viability at 28.5 h, 10 µM amounted to 108%. Still for that read-out and setting: to `CCCN1CCCC(c2ccccc2O)C1` (centres unmarked) [CBK024365G] belongs 95.3%; to `Oc1nc(O)c2c3c(n(CCn4ccnc4)c2n1)CCCC3` [CBK024380B], 109%.

With `CC(C)CC(C(=O)Nc1ccc(C2CCCC2)cc1)N1CCN(C)CC1` (centres unmarked) [CBK024386C], the viability at 28.5 h, 10 µM was found to be 87%. For the compound `c1ccc(CNCc2nc(-c3ccccc3)no2)cc1` [CBK024404], the viability at 28.5 h, 10 µM worked out at 99.1%. Regarding `NS(=O)(=O)c1cccc(NC(=O)c2cccnc2)c1` [CBK024417], the viability at 28.5 h, 10 µM was 93.6%. Take `NS(=O)(=O)c1cccc(NC(=O)c2cccs2)c1` [CBK024419]: the viability at 28.5 h, 10 µM was found to be 94.2%.

For `CC(=O)NCCN(Cc1ccc(S(=O)(=O)N2CCOC2=O)cc1)Cc1ccoc1` [CBK024460], the viability at 28.5 h, 10 µM amounted to 110%. With `COc1cccc(CC(=O)NCc2ccccc2OC2CCNC2)c1` (centres unmarked) [CBK024487T], the viability at 28.5 h, 10 µM came to 88.5%. Still for that read-out and setting: in the case of `COCCC(=O)NCc1ccc(OC2CCNCC2)cc1` [CBK024494T] it was 98.6%; in that of `COc1ccc(CCN(CCc2ccccc2)CC(O)COc2cccc3c2CCCC3)cc1` (centres unmarked) [CBK024506T], 82.2%; in that of `COc1ccc(CCN(Cc2cccnc2)CC(O)COc2cccc3c2CCCC3)cc1` (centres unmarked) [CBK024545T], 92%. Take `CCCC(=O)Nc1ccc(N2CCNCC2)c2ccccc12` [CBK024619T]: the viability at 28.5 h, 10 µM is 88.4%. Still for that read-out and setting: in the case of `O=C1OCCN1S(=O)(=O)c1ccc(CN2CCCN(Cc3ccc(S(=O)(=O)N4CCOC4=O)cc3)CC2)cc1` [CBK024728] it was 87.1%; in that of `O=C1OCCN1S(=O)(=O)c1ccc(CN2CCN(Cc3ccc(S(=O)(=O)N4CCOC4=O)cc3)CC2)cc1` [CBK024729], 91.4%; in that of `O=S(=O)(c1ccccc1)N(CC(F)(F)F)c1ccc(C(O)(C(F)(F)F)C(F)(F)F)cc1` [CBK024768], 121%. On the same count and under the same terms, in the case of `CCCC(=O)Nc1cc(S(=O)(=O)NC)ccc1C` [CBK024770] it was 91.8%; in that of `Cc1c(Cl)cccc1S(=O)(=O)Nc1nccnc1C(=O)O` [CBK024795], 90.9%; in that of `O=C(O)c1c(NS(=O)(=O)Cc2ccccc2[N+](=O)[O-])sc2c1CCCC2` [CBK024819], 106%. On the same count and under the same terms, to `O=c1c(N2CCNCC2)nccn1CC1COc2ccccc2O1` (centres unmarked) [CBK024845T] belongs 87%. As to `O=C1NC(N2CCCC2)=NOc2nnc(Cl)cc21` [CBK024856], the viability at 28.5 h, 10 µM was determined as 109%. On the same count and under the same terms, in the case of `COc1cc(C(C)=O)ccc1OCCCN1CCC(O)(C(=O)c2cccc(C(F)(F)F)c2)CC1` [CBK024866C] it was 103%. Consider `COc1cc(C(C)=O)ccc1OCCCN1CCC(O)(C(=O)c2ccc(Cl)c(Cl)c2)CC1` [CBK024875C], for which the viability at 28.5 h, 10 µM turned out to be 97.6%.

As for `CCCN1CCC2CN(CCCC(=O)c3ccc(F)cc3)CCN2C1=O` (centres unmarked) [CBK024882C], the viability at 28.5 h, 10 µM turned out to be 101%. On the same count and under the same terms, in the case of `CCCCCCN1CCC2CN(CCCC(=O)c3ccc(F)cc3)CCN2C1=O` (centres unmarked) [CBK024890C] it was 99%; in that of `CC(C)CCN1CCC2CN(CCCC(c3ccc(F)cc3)c3ccc(F)cc3)CCN2C1=O` (centres unmarked) [CBK024898C], 102%; in that of `CCNC(=O)N1CC(C)N(CCCC(c2ccc(F)cc2)c2ccc(F)cc2)CC1C` (centres unmarked) [CBK024912C], 105%.

In the case of `CCCCCNC(=O)N1CCN(CCCC(c2ccc(F)cc2)c2ccc(F)cc2)CC1` [CBK024917C], the viability at 28.5 h, 10 µM turned out to be 103%.

The same data set, now with this note: human, hela cells, % viability, bulk resorufin, single well.
For `CCCN(CCc1cccnc1)C1Cc2cc(OC)c(OC)cc2C1` [CBK023935C], the viability at 28.5 h, 10 µM came out at 88.1%.
